Laboratory results as given in patent US12291518B2, “Thyroid hormone receptor agonists and use thereof” (Eccogene Inc., priority 2020, dated 2025).
Like-named read-outs stand apart in the source and are kept apart here.

Assays:
THR beta-LBD = target: T1, THR beta-LBD (Homo sapiens, UniProt P10828); experiment: THR-β Coactivator Peptide Recruitment Assay (LanthaScreen TR-FRET); assay type: biochemical
T1 construct: THR beta-LBD (the final concentration is 0.5 nM) was added to the 384-well assay plate; purchased Invitrogen PV4686
T1 sequence (P10828 217-461 limits assumed): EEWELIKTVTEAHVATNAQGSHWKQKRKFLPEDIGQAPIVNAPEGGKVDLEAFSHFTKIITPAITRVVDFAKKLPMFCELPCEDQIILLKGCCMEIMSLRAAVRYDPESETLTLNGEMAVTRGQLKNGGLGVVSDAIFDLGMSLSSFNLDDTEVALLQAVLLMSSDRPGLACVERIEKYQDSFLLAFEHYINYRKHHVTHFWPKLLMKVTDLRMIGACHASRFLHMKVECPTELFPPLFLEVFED
Outline: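 GST-tagged THR beta-LBD (0.5 nM) with test compound recruits fluorescein-SRC2-2 coactivator peptide (0.1 nM), detected with Tb-anti-GST antibody (2 nM).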

THR alpha-LBD = target: T2, THR alpha-LBD (Homo sapiens, UniProt P10827); experiment: THR-α Coactivator Peptide Recruitment Assay (LanthaScreen TR-FRET); assay type: biochemical
T2 construct: except that THR alpha-LBD of a final concentration 0.25 nM was used; purchased Invitrogen PV4687
T2 sequence (P10827 163-410 isoform P10827-2 limits assumed, other chains not shown): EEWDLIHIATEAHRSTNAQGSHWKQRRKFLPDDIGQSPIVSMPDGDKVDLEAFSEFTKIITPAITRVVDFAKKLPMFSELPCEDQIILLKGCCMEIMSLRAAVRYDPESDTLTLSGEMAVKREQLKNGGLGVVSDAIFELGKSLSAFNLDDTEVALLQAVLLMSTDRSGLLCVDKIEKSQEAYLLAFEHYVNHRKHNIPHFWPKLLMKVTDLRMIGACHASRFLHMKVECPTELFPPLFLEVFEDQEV
Outline: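 TR-FRET coactivator recruitment with THR alpha-LBD at 0.25 nM final, Fluorescein-SRC2-2 peptide 0.1 nM and Tb-labeled anti-GST antibody 2 nM; 2 h incubation at room temperature. 520/495 nm emission ratio fitted to a four-parameter sigmoidal curve to give EC50.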

[1] = TR-FRET coactivator recruitment, THR beta-LBD 0.5 nM
[2] = TR-FRET coactivator recruitment, THR beta-LBD 0.5 nM, read-out: THRβ EC50
[3] = TR-FRET coactivator recruitment, THR alpha-LBD 0.25 nM
[4] = TR-FRET coactivator recruitment, THR alpha-LBD 0.25 nM, read-out: THRα EC50

| THRβ Emax (THR beta-LBD; [1]) | EC50 (THR beta-LBD; [2]) [nM] | THRα Emax (THR alpha-LBD; [3]) | EC50 (THR alpha-LBD; [4]) [nM] | SMILES | EC50 (THR beta-LBD) [nM] | EC50 (THR alpha-LBD) [nM] |
| --- | --- | --- | --- | --- | --- | --- |
| A (90~110) | 2 to 20 | B (40~85) | 2 to 200 | O=C(NC1CC1)C1(NS(=O)(=O)c2cc(Oc3c(Cl)cc(-n4nc(C(F)F)c(=O)[nH]c4=O)cc3Cl)ccc2O)CC1 [Compound 71, N-cyclopropyl-1-[[5-[2,6-dichloro-4-[6-(difluoromethyl)-3,5-dioxo-1,2,4-triazin-2-yl]phenoxy]-2-hydroxy-phenyl]sulfonylamino] cyclopropane carboxamide] | – | – |
| B (75~90) | < 2 | A (85~110) | 2 to 200 | O=c1[nH]c(=O)n(-c2cc(Cl)c(Oc3ccc(O)c(S(=O)(=O)N4CC[C@@H](O)C4)c3)c(Cl)c2)nc1C(F)F [Compound 76, (R)-2-(3,5-dichloro-4-(4-hydroxy-3-((3-hydroxypyrrolidin-1-yl)sulfonyl)phenoxy)phenyl)-6-(difluoromethyl)-1,2,4-triazine-3,5(2H,4H)-dione] | – | – |
| B (75~90) | < 2 | A (85~110) | 2 to 200 | O=c1[nH]c(=O)n(-c2cc(Cl)c(Oc3ccc(O)c(S(=O)(=O)N4CC[C@H](O)C4)c3)c(Cl)c2)nc1C(F)F [Compound 77, (S)-2-(3,5-dichloro-4-(4-hydroxy-3-((3-hydroxypyrrolidin-1-yl)sulfonyl)phenoxy)phenyl)-6-(difluoromethyl)-1,2,4-triazine-3,5(2H,4H)-dione] | – | – |
| B (75~90) | < 2 | A (85~110) | 2 to 200 | N#CC12CC(NS(=O)(=O)c3cc(Oc4c(Cl)cc(-n5nc(C(F)F)c(=O)[nH]c5=O)cc4Cl)ccc3O)(C1)C2 [Compound 79, N-(3-cyanobicyclo[1.1.1]pentan-1-yl)-5-(2,6-dichloro-4-(6-(difluoromethyl)-3,5-dioxo-4,5-dihydro-1,2,4-triazin-2 (3H)-yl)phenoxy)-2-hydroxybenzenesulfonamide] | – | – |
| A (90~110) | 2 to 20 | A (85~110) | 2 to 200 | O=c1[nH]c(=O)n(-c2cc(Cl)c(Oc3ccc(O)c(S(=O)(=O)NCC4(O)CC4)c3)c(Cl)c2)nc1C(F)F [Compound 80, 5-(2,6-dichloro-4-(6-(difluoromethyl)-3,5-dioxo-4,5-dihydro-1,2,4-triazin-2(3H)-yl)phenoxy)-2-hydroxy-N-((1-hydroxycyclopropyl)methyl)benzenesulfonamide] | – | – |
| A (90~110) | 2 to 20 | A (85~110) | 2 to 200 | O=c1[nH]c(=O)n(-c2cc(Cl)c(Oc3ccc(O)c(S(=O)(=O)NC45CC(O)(C4)C5)c3)c(Cl)c2)nc1C(F)F [Compound 81, 5-(2,6-dichloro-4-(6-(difluoromethyl)-3,5-dioxo-4,5-dihydro-1,2,4-triazin-2(3H)-yl)phenoxy)-2-hydroxy-N-(3-hydroxybicyclo[1.1.1]pentan-1-yl)benzenesulfonamide] | – | – |
| B (75~90) | 20 to 100 | B (40~85) | > 1000 | CS(=O)(=O)[C@H]1C[C@H](NS(=O)(=O)c2cc(Oc3c(Cl)cc(-n4nc(C(F)F)c(=O)[nH]c4=O)cc3Cl)ccc2O)C1 [Compound 82, 5-(2,6-dichloro-4-(6-(difluoromethyl)-3,5-dioxo-4,5-dihydro-1,2,4-triazin-2(3H)-yl)phenoxy)-2-hydroxy-N-((1r,3r)-3-(methylsulfonyl)cyclobutyl)benzenesulfonamide] | – | – |
| A (90~110) | < 2 | A (85~110) | 2 to 200 | O=c1[nH]c(=O)n(-c2cc(Cl)c(Oc3ccc(O)c(S(=O)(=O)NC4CS(=O)(=O)C4)c3)c(Cl)c2)nc1C(F)F [Compound 83, 5-(2,6-dichloro-4-(6-(difluoromethyl)-3,5-dioxo-4,5-dihydro-1,2,4-triazin-2(3H)-yl)phenoxy)-N-(1,1-dioxidothietan-3-yl)-2-hydroxybenzenesulfonamide] | – | – |
| A (90~110) | < 2 | A (85~110) | 2 to 200 | O=C(NCC1(NS(=O)(=O)c2cc(Oc3c(Cl)cc(-n4nc(C(F)F)c(=O)[nH]c4=O)cc3Cl)ccc2O)CC1)C1CC1 [Compound 84, N-[[1-[[5-[2,6-dichloro-4-[6-(difluoromethyl)-3,5-dioxo-1,2,4-triazin-2-yl]phenoxy]-2-hydroxy-phenyl]sulfonylamino]cyclopropyl]methyl]cyclopropane carboxamide] | – | – |
| C (<75) | > 100 | C (<40) | > 1000 | O=C(NC12CC(NS(=O)(=O)c3cc(Oc4c(Cl)cc(-n5nc(C(F)F)c(=O)[nH]c5=O)cc4Cl)ccc3O)(C1)C2)C1CC1 [Compound 85, N-(3-((5-(2,6-dichloro-4-(6-(difluoromethyl)-3,5-dioxo-4,5-dihydro-1,2,4-triazin-2(3H)-yl)phenoxy)-2-hydroxyphenyl)sulfonamido)bicyclo[1.1.1]pentan-1-yl)cyclopropanecarboxamide] | – | – |
| C (<75) | 2 to 20 | C (<40) | 200 to 1000 | O=C(N[C@H]1C[C@@H](NS(=O)(=O)c2cc(Oc3c(Cl)cc(-n4nc(C(F)F)c(=O)[nH]c4=O)cc3Cl)ccc2O)C1)C1CC1 [Compound 86, N-((1s,3s)-3-((5-(2,6-dichloro-4-(6-(difluoromethyl)-3,5-dioxo-4,5-dihydro-1,2,4-triazin-2(3H)-yl)phenoxy)-2-hydroxyphenyl)sulfonamido)cyclobutyl) cyclopropanecarboxamide] | – | – |

| SMILES | THRβ Emax (THR beta-LBD; [1]) | EC50 (THR beta-LBD; [2]) [nM] | THRα Emax (THR alpha-LBD; [3]) | EC50 (THR alpha-LBD; [4]) [nM] | EC50 (THR beta-LBD) [nM] | EC50 (THR alpha-LBD) [nM] |
| --- | --- | --- | --- | --- | --- | --- |
| CS(=O)(=O)NC1CN(S(=O)(=O)c2cc(Oc3c(Cl)cc(-n4nc(C(F)F)c(=O)[nH]c4=O)cc3Cl)ccc2O)C1 [Compound 73, N-[l-[5-[2,6-dichloro-4-[6-(difluoromethyl)-3,5-dioxo-1,2,4-triazin-2-yl]phenoxy]-2-hydroxy-phenyl]sulfonylazetidin-3-yl] methane sulfonamide] | C (<75) | 2 to 20 | B (40~85) | 2 to 200 | – | – |
| O=c1[nH]c(=O)n(-c2cc(Cl)c(Oc3ccc(O)c(S(=O)(=O)NC4CC5(CC(O)C5)C4)c3)c(Cl)c2)nc1C(F)F (centres unmarked) [Compound 74, 5-[2,6-dichloro-4-[6-(difluoromethyl)-3,5-dioxo-1,2,4-triazin-2-yl]phenoxy]-2-hydroxy-N-(2-hydroxyspiro [3.3]heptan-6-yl) benzene sulfonamide] | B (75~90) | 20 to 100 | B (40~85) | 200 to 1000 | – | – |
| O=C(N[C@H]1C[C@H](NS(=O)(=O)c2cc(Oc3c(Cl)cc(-n4nc(C(F)F)c(=O)[nH]c4=O)cc3Cl)ccc2O)C1)C1CC1 [Compound 78, N-[3-[[5-[2,6-dichloro-4-[6-(difluoromethyl)-3,5-dioxo-1,2,4-triazin-2-yl]-phenoxy]-2-hydroxy-phenyl]-sulfonylamino]-cyclobutyl]-cyclopropanecarboxamide] | C (<75) | – | B (40~85) | – | 20 to 100 | 200 to 1000 |
